Results on two molecules are retold here after publication PMC8069432, “Thiosemicarbazide Derivatives Decrease the ATPase Activity of Staphylococcus aureus Topoisomerase IV, Inhibit Mycobacterial Growth, and Affect Replication in Mycobacterium smegmatis” (International Journal of Molecular Sciences, 2021).

The target of this test is T1, S. aureus topoisomerase IV (ATPase kit; ParE subunit) (Staphylococcus aureus, UniProt Q5HG65).
T1 construct: purified topoisomerase IV from commercial kit (Inspiralis), C2E2 heterotetramer; with DNA topoisomerase 4 subunit A
The test can be described thus: PK/LDH-coupled ATPase assay, A340. Format: biochemical. The text has this:
PK/LDH-coupled ATPase assay, A340 on S. aureus topoisomerase IV (ATPase kit; ParE subunit)

Like-named read-outs stand apart in the source and are kept apart here.

T1 sequence (Q2FYS4 whole entry): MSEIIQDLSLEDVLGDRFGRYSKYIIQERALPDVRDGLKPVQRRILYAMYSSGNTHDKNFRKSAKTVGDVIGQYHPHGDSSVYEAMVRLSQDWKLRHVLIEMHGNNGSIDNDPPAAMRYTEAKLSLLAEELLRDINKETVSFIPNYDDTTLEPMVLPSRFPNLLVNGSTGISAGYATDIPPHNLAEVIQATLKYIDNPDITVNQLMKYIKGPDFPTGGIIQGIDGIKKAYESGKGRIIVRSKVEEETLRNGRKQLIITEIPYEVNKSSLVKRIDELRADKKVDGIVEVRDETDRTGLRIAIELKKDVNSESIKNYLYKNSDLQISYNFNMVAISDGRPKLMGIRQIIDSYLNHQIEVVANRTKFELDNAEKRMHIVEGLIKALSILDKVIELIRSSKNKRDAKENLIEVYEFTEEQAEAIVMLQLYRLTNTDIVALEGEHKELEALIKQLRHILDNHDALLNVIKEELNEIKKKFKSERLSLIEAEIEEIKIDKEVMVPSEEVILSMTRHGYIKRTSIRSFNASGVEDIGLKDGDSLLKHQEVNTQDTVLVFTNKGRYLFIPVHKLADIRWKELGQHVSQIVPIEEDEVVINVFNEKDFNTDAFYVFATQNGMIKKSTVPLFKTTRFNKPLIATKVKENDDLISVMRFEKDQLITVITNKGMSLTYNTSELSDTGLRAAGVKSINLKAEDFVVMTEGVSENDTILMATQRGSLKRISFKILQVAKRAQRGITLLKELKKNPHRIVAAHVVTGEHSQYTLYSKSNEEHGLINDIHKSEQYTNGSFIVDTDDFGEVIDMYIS
T1 sequence (Q5HG65 whole entry): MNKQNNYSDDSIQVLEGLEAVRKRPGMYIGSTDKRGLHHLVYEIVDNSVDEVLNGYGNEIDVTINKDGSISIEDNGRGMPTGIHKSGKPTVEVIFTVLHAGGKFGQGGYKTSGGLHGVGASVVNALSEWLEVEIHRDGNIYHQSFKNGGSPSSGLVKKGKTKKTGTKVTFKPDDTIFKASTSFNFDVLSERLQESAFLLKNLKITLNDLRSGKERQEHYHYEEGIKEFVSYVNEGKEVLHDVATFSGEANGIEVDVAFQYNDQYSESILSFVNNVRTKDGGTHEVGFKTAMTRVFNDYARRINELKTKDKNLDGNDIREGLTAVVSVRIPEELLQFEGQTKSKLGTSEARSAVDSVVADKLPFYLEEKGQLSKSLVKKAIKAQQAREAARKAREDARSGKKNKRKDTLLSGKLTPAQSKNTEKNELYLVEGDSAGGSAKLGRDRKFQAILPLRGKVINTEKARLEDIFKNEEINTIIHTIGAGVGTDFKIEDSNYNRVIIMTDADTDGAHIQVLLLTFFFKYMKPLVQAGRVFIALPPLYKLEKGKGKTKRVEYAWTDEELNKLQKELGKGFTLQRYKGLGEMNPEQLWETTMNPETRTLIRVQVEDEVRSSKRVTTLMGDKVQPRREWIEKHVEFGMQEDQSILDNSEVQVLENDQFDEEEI

With `O=C(NC(=S)NNC(=O)c1cc2ccccc2[nH]1)c1ccccc1` [compound 7, 4-benzoyl-1-(indol-2-oyl) thiosemicarbazide], the inhibition at 20 µM (read-out: 7) was found to be 49.4 ± 2.27%.

Regarding `O=C(NNC(=S)Nc1ccc([N+](=O)[O-])cc1)c1cc2ccccc2[nH]1` [compound 4, 1-(indol-2-oyl)-4-(4-nitrophenyl) thiosemicarbazide], the inhibition at 20 µM (read-out: 4) was 55.8 ± 1.59%.
